Patent US20100021918A1, “METHOD FOR ASSAYING ACTION OF ANTITUMOR AGENT USING SPLICING DEFECTS AS INDEX” (Eisai R&D Management Co., Ltd., priority 2007, published 2010)

System: human colon carcinoma cell strain WiDr
Experiment: Microarray analysis (Human Exon 1.0 ST Array) of intron expression, Table 1
Format: cell-based
Conditions: six hours
Method: Using RNA purified from human colon carcinoma cell strain WiDr treated with 14 nM of (8E,12E,14E)-7-((4-cycloheptylpiperazin-1-yl)carbonyl)oxy-3,6,16,21-tetrahydroxy-6,10,12,16,20-pentamethyl-18,19-epoxytricosa-8,12,14-trien-11-olide (also referred to as “[…]”) for six hours, microarray analysis (Human Exon 1.0 ST Array: Affymetrix) was carried out. Not only does this array comprehensively cover the exons for all genes, but it is also designed to have probes for regions estimated as potential exons by a computer prediction program, which enables detection of the expression of the exons and introns of all genes in theory.
WiDr cells were first suspended in RPMI1640 medium (containing 10% FBS, penicillin, and streptomycin) and seeded in a 10 cm dish (2×10^6 cells/dish). After an overnight culture in an incubator with 5% carbon dioxide gas at 37° C., the medium was changed with medium containing 14 nM of (8E,12E,14E)-7-((4-cycloheptylpiperazin-1-yl)carbonyl)oxy-3,6,16,21-tetrahydroxy-6,10,12,16,20-pentamethyl-18,19-epoxytricosa-8,12,14-trien-11-olide or containing vehicle alone. After cultured for additional six hours, TRI reagent (SIGMA) were added to the cells and the cells were harvested. RNA was purified in accordance with the protocol of TRI reagent, followed by further purification with RNeasy (QIAGEN). Absorbance at 260 nm was measured to quantify an amount of RNA. This experiment was repeated three times and RNA samples (n=3) were prepared.
Ribosomal RNA was removed from 1 μg of each total RNA of control cells (n=3) and cells with the treatment (n=3) by using RiboMinus Human/Mouse Transcriptome Isolation Kit (Invitrogen). Single stranded cDNA synthesis, double stranded cDNA synthesis, cRNA synthesis, second single stranded cDNA synthesis, cDNA fragmentation, and cDNA labeling in order were carried out for the total RNA from which ribosomal RNA was removed, by using GeneChip Whole Transcript Sense Target Labeling and Control Reagents (Affymetrix) to make a cDNA probe. The cDNA probe was used for hybridization with Human Exon 1.0 ST Array (Affymetrix). The array was washed and stained, and luminescence intensity was measured by a scanner.
The expression level of the probe set and the gene was quantified by using Expression Console Ver. 1.0 (Affymetrix) with Summarization Method and Normalization Method being set to “Median polish as used in RMA” and “None”, respectively. The expression level of the probe was normalized with that of the gene. Welch's t-test was conducted for the treated group and the control group to determine a p value, which was converted into a q value by controlling False Discovery Ratio to pick out a significant probe set.
Probe sets showing that the q value was less than 1%; the normalized change in the level expression of the probe set in the group with the treatment was more than 10 times; the expression level of the probe set and the gene in the group with the treatment was more than 100; and probe set annotation was “extended, full, free”, were picked out and further arranged by gene. A gene was, when more than one probe sets therefor were found, determined as a candidate gene with increased expression level of the intron regions (Table 1). In Table 1, for the gene evaluated, gene name (Gene Name), abbreviated name (Gene Symbol), accession number (Accession), alias name (Synonym), transcription number in Human Exon 1.0 ST Array (Human Exon 1.0 ST Array), chromosome number (Chromosome), type of strand (Strand), start region (Start), stop region (Stop), and change in expression level (Fold Change) were respectively shown.

CCC(O)C(C)C1OC1CC(C)(O)/C=C/C=C(\C)C1OC(=O)CC(O)CCC(C)(O)C(OC(=O)N2CCN(C3CCCCCC3)CC2)/C=C/C1C (centres unmarked) [E7107, (8E,12E,14E)-7-((4-cycloheptylpiperazin-1-yl)carbonyl)oxy-3,6,16,21-tetrahydroxy-6,10,12,16,20-pentamethyl-18,19-epoxytricosa-8,12,14-trien-11-olide]
Fold Change (change in expression level, intron probe sets) ADRM1 (gene ADRM1, 14 nM): 13.51 | Fold Change (change in expression level, intron probe sets) AK2 (gene AK2, 14 nM): 10.05 | Fold Change (change in expression level, intron probe sets) ARFIP2 (gene ARFIP2, 14 nM): 12.04 | Fold Change (change in expression level, intron probe sets) ARHGAP12 (gene ARHGAP12, 14 nM): 11.60 | Fold Change (change in expression level, intron probe sets) ATP1B1 (gene ATP1B1, 14 nM): 12.11 | Fold Change (change in expression level, intron probe sets) BAT2D1 (gene BAT2D1, 14 nM): 11.26 | Fold Change (change in expression level, intron probe sets) BPTF (gene BPTF, 14 nM): 17.61 | Fold Change (change in expression level, intron probe sets) BXDC2 (gene BXDC2, 14 nM): 25.94 | Fold Change (change in expression level, intron probe sets) C6orf166 (gene C6orf166, 14 nM): 19.23 | Fold Change (change in expression level, intron probe sets) C9orf86 // KIAA1984 (gene C9orf86 // KIAA1984, 14 nM): 13.66 | Fold Change (change in expression level, intron probe sets) C10orf18 (gene C10orf18, 14 nM): 19.86 | Fold Change (change in expression level, intron probe sets) C16orf80 (gene C16orf80, 14 nM): 16.25 | Fold Change (change in expression level, intron probe sets) CABLES1 (gene CABLES1, 14 nM): 16.94 | Fold Change (change in expression level, intron probe sets) CCND1 (gene CCND1, 14 nM): 12.66 | Fold Change (change in expression level, intron probe sets) CCNL2 (gene CCNL2, 14 nM): 12.84 | Fold Change (change in expression level, intron probe sets) CDC20 (gene CDC20, 14 nM): 18.22 | Fold Change (change in expression level, intron probe sets) CENPL (gene CENPL, 14 nM): 14.13 | Fold Change (change in expression level, intron probe sets) DCBLD2 (gene DCBLD2, 14 nM): 19.52 | Fold Change (change in expression level, intron probe sets) DDEF2 (gene DDEF2, 14 nM): 22.92 | Fold Change (change in expression level, intron probe sets) DKC1 (gene DKC1, 14 nM): 11.53 | Fold Change (change in expression level, intron probe sets) DNAJB1 (gene DNAJB1, 14 nM): 11.95 | Fold Change (change in expression level, intron probe sets) EIF2C2 (gene EIF2C2, 14 nM): 21.33 | Fold Change (change in expression level, intron probe sets) EIF4A1 (gene EIF4A1, 14 nM): 16.15 | Fold Change (change in expression level, intron probe sets) EIF5 (gene EIF5, 14 nM): 12.30 | Fold Change (change in expression level, intron probe sets) FOXK2 (gene FOXK2, 14 nM): 18.79 | Fold Change (change in expression level, intron probe sets) GNB2L1 (gene GNB2L1, 14 nM): 11.87 | Fold Change (change in expression level, intron probe sets) GNL3 (gene GNL3, 14 nM): 14.08 | Fold Change (change in expression level, intron probe sets) GTPBP4 (gene GTPBP4, 14 nM): 12.24 | Fold Change (change in expression level, intron probe sets) HMGCS1 (gene HMGCS1, 14 nM): 13.21 | Fold Change (change in expression level, intron probe sets) HSPA9 (gene HSPA9, 14 nM): 13.33 | Fold Change (change in expression level, intron probe sets) HSPH1 (gene HSPH1, 14 nM): 15.12 | Fold Change (change in expression level, intron probe sets) IDI1 (gene IDI1, 14 nM): 19.25 | Fold Change (change in expression level, intron probe sets) ILF2 (gene ILF2, 14 nM): 13.79 | Fold Change (change in expression level, intron probe sets) ITGB1 (gene ITGB1, 14 nM): 21.48 | Fold Change (change in expression level, intron probe sets) JARID1C (gene JARID1C, 14 nM): 14.09 | Fold Change (change in expression level, intron probe sets) KIAA0174 (gene KIAA0174, 14 nM): 19.65 | Fold Change (change in expression level, intron probe sets) KIAA1429 (gene KIAA1429, 14 nM): 14.19 | Fold Change (change in expression level, intron probe sets) KLHL18 (gene KLHL18, 14 nM): 15.00 | Fold Change (change in expression level, intron probe sets) KRT18 (gene KRT18, 14 nM): 13.41 | Fold Change (change in expression level, intron probe sets) LMO7 (gene LMO7, 14 nM): 14.34 | Fold Change (change in expression level, intron probe sets) LTV1 (gene LTV1, 14 nM): 18.37 | Fold Change (change in expression level, intron probe sets) MAT2A (gene MAT2A, 14 nM): 12.29 | Fold Change (change in expression level, intron probe sets) MBNL2 (gene MBNL2, 14 nM): 28.86 | Fold Change (change in expression level, intron probe sets) MYO1E (gene MYO1E, 14 nM): 14.49 | Fold Change (change in expression level, intron probe sets) NET1 (gene NET1, 14 nM): 13.02 | Fold Change (change in expression level, intron probe sets) NUPL1 (gene NUPL1, 14 nM): 12.63 | Fold Change (change in expression level, intron probe sets) PUM2 (gene PUM2, 14 nM): 19.01 | Fold Change (change in expression level, intron probe sets) RAF1 (gene RAF1, 14 nM): 16.41 | Fold Change (change in expression level, intron probe sets) RIOK3 (gene RIOK3, 14 nM): 13.67 | Fold Change (change in expression level, intron probe sets) RNF40 (gene RNF40, 14 nM): 15.84 | Fold Change (change in expression level, intron probe sets) RSPRY1 (gene RSPRY1, 14 nM): 14.32 | Fold Change (change in expression level, intron probe sets) SART3 (gene SART3, 14 nM): 15.13 | Fold Change (change in expression level, intron probe sets) SLC2A1 (gene SLC2A1, 14 nM): 16.44 | Fold Change (change in expression level, intron probe sets) SMAD3 (gene SMAD3, 14 nM): 12.88 | Fold Change (change in expression level, intron probe sets) SMURF2 (gene SMURF2, 14 nM): 16.60 | Fold Change (change in expression level, intron probe sets) SNX19 (gene SNX19, 14 nM): 17.12 | Fold Change (change in expression level, intron probe sets) SPRED2 (gene SPRED2, 14 nM): 31.56 | Fold Change (change in expression level, intron probe sets) ST3GAL1 (gene ST3GAL1, 14 nM): 12.77 | Fold Change (change in expression level, intron probe sets) SUPV3L1 (gene SUPV3L1, 14 nM): 18.81 | Fold Change (change in expression level, intron probe sets) TARDBP (gene TARDBP, 14 nM): 18.13 | Fold Change (change in expression level, intron probe sets) TES (gene TES, 14 nM): 15.95 | Fold Change (change in expression level, intron probe sets) TINF2 (gene TINF2, 14 nM): 11.05 | Fold Change (change in expression level, intron probe sets) TJP1 (gene TJP1, 14 nM): 11.55 | Fold Change (change in expression level, intron probe sets) UBE3A (gene UBE3A, 14 nM): 19.35 | Fold Change (change in expression level, intron probe sets) USP47 (gene USP47, 14 nM): 12.32 | Fold Change (change in expression level, intron probe sets) VIL2 (gene VIL2, 14 nM): 17.50 | Fold Change (change in expression level, intron probe sets) WAC (gene WAC, 14 nM): 18.53 | Fold Change (change in expression level, intron probe sets) WDR45L (gene WDR45L, 14 nM): 12.59 | Fold Change (change in expression level, intron probe sets) WDR73 (gene WDR73, 14 nM): 30.61 | Fold Change (change in expression level, intron probe sets) WDR74 (gene WDR74, 14 nM): 12.70 | Fold Change (change in expression level, intron probe sets) WEE1 (gene WEE1, 14 nM): 12.26 | Fold Change (change in expression level, intron probe sets) YTHDC1 (gene YTHDC1, 14 nM): 10.66 | Fold Change (change in expression level, intron probe sets) ZNF384 (gene ZNF384, 14 nM): 12.13 | Fold Change (change in expression level, intron probe sets) ZNF410 (gene ZNF410, 14 nM): 12.01
